Data: patent US20260028365A1 (BIOGEN MA INC., priority 2022, published 2026)

Key:
[1] = molecular target: JH2 domain of human Tyk2 (Homo sapiens (Human), UniProt P29597); assay: JH2 Biochemical Assay (TR-FRET probe displacement); type: binding; details: JH2 domain of human Tyk2, TR-FRET probe displacement
[2] = molecular target: Tyk2 (Homo sapiens (Human), UniProt P29597); assay: pSTAT4 Cell Assay (MSD, NK92 cells); type: cell-based; details: MSD
Sequence of Tyk2 (P29597 whole entry): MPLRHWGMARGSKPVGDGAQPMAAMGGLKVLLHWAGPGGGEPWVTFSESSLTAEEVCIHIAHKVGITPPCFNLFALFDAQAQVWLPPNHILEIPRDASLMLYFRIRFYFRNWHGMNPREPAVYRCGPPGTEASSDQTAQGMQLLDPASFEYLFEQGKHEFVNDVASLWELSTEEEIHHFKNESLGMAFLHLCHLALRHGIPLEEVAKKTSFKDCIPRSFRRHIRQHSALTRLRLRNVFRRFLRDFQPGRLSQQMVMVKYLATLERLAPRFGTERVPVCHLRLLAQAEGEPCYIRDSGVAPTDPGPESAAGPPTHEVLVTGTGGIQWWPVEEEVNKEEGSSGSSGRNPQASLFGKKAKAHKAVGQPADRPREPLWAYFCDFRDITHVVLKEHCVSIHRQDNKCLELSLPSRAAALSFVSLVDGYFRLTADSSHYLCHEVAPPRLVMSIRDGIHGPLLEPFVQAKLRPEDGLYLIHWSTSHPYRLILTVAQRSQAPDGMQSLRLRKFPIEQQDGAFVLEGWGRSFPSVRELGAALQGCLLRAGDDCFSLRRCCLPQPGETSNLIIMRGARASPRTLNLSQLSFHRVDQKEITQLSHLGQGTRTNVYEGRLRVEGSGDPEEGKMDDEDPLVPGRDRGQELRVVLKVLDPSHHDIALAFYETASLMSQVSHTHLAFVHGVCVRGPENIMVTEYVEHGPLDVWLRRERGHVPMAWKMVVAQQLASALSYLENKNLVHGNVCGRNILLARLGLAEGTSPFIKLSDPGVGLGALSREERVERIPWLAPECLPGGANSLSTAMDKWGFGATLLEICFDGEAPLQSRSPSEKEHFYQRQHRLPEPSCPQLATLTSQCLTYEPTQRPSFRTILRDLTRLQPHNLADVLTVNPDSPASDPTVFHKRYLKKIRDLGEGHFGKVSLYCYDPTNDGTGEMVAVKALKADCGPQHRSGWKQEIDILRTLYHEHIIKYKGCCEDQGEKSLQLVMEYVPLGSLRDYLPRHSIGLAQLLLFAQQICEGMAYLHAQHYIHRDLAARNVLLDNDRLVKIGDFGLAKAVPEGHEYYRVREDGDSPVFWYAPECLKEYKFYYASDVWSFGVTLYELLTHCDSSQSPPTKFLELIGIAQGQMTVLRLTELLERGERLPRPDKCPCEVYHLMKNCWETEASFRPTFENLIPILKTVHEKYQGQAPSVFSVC

Sequence of JH2 domain of human Tyk2 (P29597 575-876): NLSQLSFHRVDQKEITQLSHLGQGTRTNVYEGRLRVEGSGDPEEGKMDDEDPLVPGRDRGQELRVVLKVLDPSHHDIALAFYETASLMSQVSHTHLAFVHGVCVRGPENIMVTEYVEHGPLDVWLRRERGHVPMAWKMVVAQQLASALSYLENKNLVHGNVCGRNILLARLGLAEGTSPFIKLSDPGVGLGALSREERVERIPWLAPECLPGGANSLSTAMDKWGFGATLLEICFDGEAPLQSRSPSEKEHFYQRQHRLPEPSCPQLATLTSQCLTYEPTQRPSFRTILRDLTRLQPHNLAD

Row | Structure (SMILES) | IC50 [1] [nM] | IC50 [2] [nM]
1 | CC(=O)Nc1cc(Nc2cc(C)nc(C(C)(C)F)n2)c(-c2cn3c(n2)COCC3)cn1 [Example 531, N-(5-(5,6-dihydrO8H-imidazo[2,1-c][1,4]oxazin-2-yl)-4-((2-(2-fluoropropan-2-yl)-6-methylpyrimidin-4-yl)amino)pyridin-2-yl)acetamide] | ≤ 10 | ≤ 10
2 | CC(=O)Nc1cc(Nc2cc(C)nc(C(C)(C)F)n2)c(-c2cn3cnnc3cn2)cn1 [Example 532, N-(5-([1,2,4]triazolo[4,3-a]pyrazin-6-yl)-4-((2-(2-fluoropropan-2-yl)-6-methylpyrimidin-4-yl)amino)pyridin-2-yl)acetamide] | ≤ 10 | 100 to 1000
3 | CC(=O)Nc1cc(Nc2cc(C)nc(C(C)(C)F)n2)c(-c2ccn3ccnc3n2)cn1 [Example 533, N-(4-((2-(2-fluoropropan-2-yl)-6-methylpyrimidin-4-yl)amino)-5-(imidazo[1,2-a]pyrimidin-7-yl)pyridin-2-yl)acetamide] | ≤ 10 | ≤ 10
4 | CC(=O)Nc1cc(Nc2cc(C)nc(C(C)(F)F)n2)c(-c2cnn3c2OCCC3)cn1 [Example 535, N-(4-((2-(1,1-difluoroethyl)-6-methylpyrimidin-4-yl)amino)-5-(6,7-dihydrO5H-pyrazolo[5,1-b][1,3]oxazin-3-yl)pyridin-2-yl)acetamide] | 10 to 100 | ≥ 1000
5 | CC(=O)Nc1cc(Nc2cc(C)nc(C(C)(F)F)n2)c(-c2ccn3ncnc3n2)cn1 [Example 536, N-(5-([1,2,4]triazolo[1,5-a]pyrimidin-5-yl)-4-((2-(1,1-difluoroethyl)-6-methylpyrimidin-4-yl)amino)pyridin-2-yl)acetamide] | ≤ 10 | ≤ 10
6 | CC(=O)Nc1cc(Nc2ccnc(C(C)(F)F)n2)c(-c2ccn3ncnc3n2)cn1 [Example 537, N-(5-([1,2,4]triazolo[1,5-a]pyrimidin-5-yl)-4-((2-(1,1-difluoroethyl)pyrimidin-4-yl)amino)pyridin-2-yl)acetamide] | ≤ 10 | 10 to 100
7 | CC(=O)Nc1cc(Nc2cc(C)nc(C(C)(C)F)n2)c(-c2ccn3nccc3n2)cn1 [Example 538, N-(4-((2-(2-fluoropropan-2-yl)-6-methylpyrimidin-4-yl)amino)-5-(pyrazolo[1,5-a]pyrimidin-5-yl)pyridin-2-yl)acetamide] | ≤ 10 | ≤ 10
8 | CC(=O)Nc1cc(Nc2ccnc(C(C)(F)F)n2)c(-c2ccn3nccc3n2)cn1 [Example 539, N-(4-((2-(1,1-difluoroethyl)pyrimidin-4-yl)amino)-5-(pyrazolo[1,5-a]pyrimidin-5-yl)pyridin-2-yl)acetamide] | ≤ 10 | ≤ 10
9 | CC(=O)Nc1cc(Nc2cc(C)nc(C(C)(F)F)n2)c(-c2ccn3nccc3n2)cn1 [Example 540, N-(4-((2-(1,1-difluoroethyl)-6-methylpyrimidin-4-yl)amino)-5-(pyrazolo[1,5-a]pyrimidin-5-yl)pyridin-2-yl)acetamide] | ≤ 10 | ≤ 10
10 | CC(=O)Nc1cc(Nc2cc(C)nc(C(C)(F)F)n2)c(-c2cc3n(n2)CCN(C)C3=O)cn1 [Example 541, N-(4-((2-(1,1-difluoroethyl)-6-methylpyrimidin-4-yl)amino)-5-(5-methyl-4-oxO4,5,6,7-tetrahydropyrazolo[1,5-a]pyrazin-2-yl)pyridin-2-yl)acetamide] | ≤ 10 | 10 to 100
11 | CCS(=O)(=O)n1ccc(-c2cnc(NC(C)=O)cc2Nc2cc(C)nc(C(C)(F)F)n2)n1 [Example 542, N-(4-((2-(1,1-difluoroethyl)-6-methylpyrimidin-4-yl)amino)-5-(1-(ethylsulfonyl)-1H-pyrazol-3-yl)pyridin-2-yl)acetamide] | ≤ 10 | ≤ 10
12 | CC(=O)Nc1cc(Nc2cc(C)nc(C(C)(F)F)n2)c(-c2ccc(S(C)(=O)=O)cn2)cn1 [Example 543, N-(4′-((2-(1,1-difluoroethyl)-6-methylpyrimidin-4-yl)amino)-5-(methylsulfonyl)-[2,3′-bipyridin]-6′-yl)acetamide] | ≤ 10 | ≤ 10
